According to publication PMC4821443 (MedChemComm, 2015):

Key:
[1] = system: breast cancer subpanel (six cell lines); assay: NCI-60 screen, breast cancer subpanel summary; assay type: cell-based; conditions: Homo sapiens, T47D, read-out: GI50 values range, breast cancer subpanel
tubulin = tubulin (Sus scrofa, UniProt P02550+P02554); assay: In vitro tubulin polymerization assay; assay type: biochemical; conditions: at concentrations as high as 200 µM (data not shown)
[2] = system: panel of 60 human cancer cell lines; assay: NCI-60 cell line anti-cancer screen, whole panel summary; assay type: cell-based; conditions: read-out: average GI50 value against all the cancer cell lines screened, NCI-60 panel

Sequence of tubulin (P02550 whole entry): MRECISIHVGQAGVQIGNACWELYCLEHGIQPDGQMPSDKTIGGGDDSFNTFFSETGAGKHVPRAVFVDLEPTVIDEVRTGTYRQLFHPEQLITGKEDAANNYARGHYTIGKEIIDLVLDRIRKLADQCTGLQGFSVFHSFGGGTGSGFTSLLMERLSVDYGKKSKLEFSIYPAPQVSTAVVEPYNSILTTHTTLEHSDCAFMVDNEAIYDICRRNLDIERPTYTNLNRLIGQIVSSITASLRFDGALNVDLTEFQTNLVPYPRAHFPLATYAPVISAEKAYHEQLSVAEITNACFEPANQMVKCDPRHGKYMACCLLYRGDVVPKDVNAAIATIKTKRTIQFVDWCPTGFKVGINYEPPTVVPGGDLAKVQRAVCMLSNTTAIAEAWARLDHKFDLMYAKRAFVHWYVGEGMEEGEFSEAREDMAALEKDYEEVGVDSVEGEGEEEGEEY
Sequence of tubulin (P02554 whole entry): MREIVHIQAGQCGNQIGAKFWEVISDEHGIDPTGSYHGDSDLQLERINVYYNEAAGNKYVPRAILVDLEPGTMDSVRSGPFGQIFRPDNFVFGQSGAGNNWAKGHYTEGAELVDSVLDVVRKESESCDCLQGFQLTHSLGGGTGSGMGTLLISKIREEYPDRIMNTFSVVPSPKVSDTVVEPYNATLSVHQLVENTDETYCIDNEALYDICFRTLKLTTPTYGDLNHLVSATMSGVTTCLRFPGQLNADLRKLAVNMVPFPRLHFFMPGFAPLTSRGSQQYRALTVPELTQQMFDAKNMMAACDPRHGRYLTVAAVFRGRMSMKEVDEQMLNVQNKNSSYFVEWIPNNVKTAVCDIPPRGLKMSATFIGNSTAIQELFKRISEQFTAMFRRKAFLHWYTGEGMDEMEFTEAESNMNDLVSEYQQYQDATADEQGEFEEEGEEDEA

| Structure (SMILES) | GI50 [1] [nM] | inhibition of tubulin polymerization (tubulin) | GI50 [2] [nM] |
| --- | --- | --- | --- |
| COc1cc(-c2n[nH]nc2-c2cc3ccccc3s2)cc(OC)c1OC [Compound 8a, 4-(benzo[b]thiophen-2-yl)-5-(3,4,5-trimeth-oxyphenyl)-2H-1,2,3-triazole] | ≤ 14 | – | – |
| COc1cc(-c2nn(C)nc2-c2cc3ccccc3s2)cc(OC)c1OC [Compound 9, 4-(benzo[b]thiophen-2-yl)-2-methyl-5-(3,4,5-trimethoxyphenyl)-2H-1,2,3-triazole] | 40 to 1600 | failed to inhibit tubulin polymerization | – |
| COc1ccc(-c2n[nH]nc2-c2csc3ccccc23)cc1OC [Compound 11b] | 630 to 3210 | – | – |
| COc1cc(-c2n[nH]nc2-c2c[nH]c3ccccc23)cc(OC)c1OC [Compound 11d] | 28 to 89 | – | 424 |
| COc1cc(OC)cc(-c2n[nH]nc2-c2c[nH]c3ccccc23)c1 [Compound 11e] | 17 to 76 | – | 856 |
